According to US9340590B2 (priority 2011, dated 2016):
Like-named read-outs stand apart in the source and are kept apart here. Positions of bridges follow the written chain, without caps; N, C: chain ends. Non-standard residues stand in square brackets, D forms with d. Residues, ends and D or L forms follow the SMILES beside them. 2Nal = N[C@@H](Cc1ccc2ccccc2c1)C(=O)O; Abu = CC[C@H](N)C(=O)O

How the values were obtained:
Assay in all cases: cell-based
hNav1.3 = hNav1.3 (Homo sapiens, UniProt Q9NY46); conditions: IonWorks Quattro, read-out: IWQ Use Nav1.3
Chain of hNav1.3 (Q9NY46 whole entry, looked up): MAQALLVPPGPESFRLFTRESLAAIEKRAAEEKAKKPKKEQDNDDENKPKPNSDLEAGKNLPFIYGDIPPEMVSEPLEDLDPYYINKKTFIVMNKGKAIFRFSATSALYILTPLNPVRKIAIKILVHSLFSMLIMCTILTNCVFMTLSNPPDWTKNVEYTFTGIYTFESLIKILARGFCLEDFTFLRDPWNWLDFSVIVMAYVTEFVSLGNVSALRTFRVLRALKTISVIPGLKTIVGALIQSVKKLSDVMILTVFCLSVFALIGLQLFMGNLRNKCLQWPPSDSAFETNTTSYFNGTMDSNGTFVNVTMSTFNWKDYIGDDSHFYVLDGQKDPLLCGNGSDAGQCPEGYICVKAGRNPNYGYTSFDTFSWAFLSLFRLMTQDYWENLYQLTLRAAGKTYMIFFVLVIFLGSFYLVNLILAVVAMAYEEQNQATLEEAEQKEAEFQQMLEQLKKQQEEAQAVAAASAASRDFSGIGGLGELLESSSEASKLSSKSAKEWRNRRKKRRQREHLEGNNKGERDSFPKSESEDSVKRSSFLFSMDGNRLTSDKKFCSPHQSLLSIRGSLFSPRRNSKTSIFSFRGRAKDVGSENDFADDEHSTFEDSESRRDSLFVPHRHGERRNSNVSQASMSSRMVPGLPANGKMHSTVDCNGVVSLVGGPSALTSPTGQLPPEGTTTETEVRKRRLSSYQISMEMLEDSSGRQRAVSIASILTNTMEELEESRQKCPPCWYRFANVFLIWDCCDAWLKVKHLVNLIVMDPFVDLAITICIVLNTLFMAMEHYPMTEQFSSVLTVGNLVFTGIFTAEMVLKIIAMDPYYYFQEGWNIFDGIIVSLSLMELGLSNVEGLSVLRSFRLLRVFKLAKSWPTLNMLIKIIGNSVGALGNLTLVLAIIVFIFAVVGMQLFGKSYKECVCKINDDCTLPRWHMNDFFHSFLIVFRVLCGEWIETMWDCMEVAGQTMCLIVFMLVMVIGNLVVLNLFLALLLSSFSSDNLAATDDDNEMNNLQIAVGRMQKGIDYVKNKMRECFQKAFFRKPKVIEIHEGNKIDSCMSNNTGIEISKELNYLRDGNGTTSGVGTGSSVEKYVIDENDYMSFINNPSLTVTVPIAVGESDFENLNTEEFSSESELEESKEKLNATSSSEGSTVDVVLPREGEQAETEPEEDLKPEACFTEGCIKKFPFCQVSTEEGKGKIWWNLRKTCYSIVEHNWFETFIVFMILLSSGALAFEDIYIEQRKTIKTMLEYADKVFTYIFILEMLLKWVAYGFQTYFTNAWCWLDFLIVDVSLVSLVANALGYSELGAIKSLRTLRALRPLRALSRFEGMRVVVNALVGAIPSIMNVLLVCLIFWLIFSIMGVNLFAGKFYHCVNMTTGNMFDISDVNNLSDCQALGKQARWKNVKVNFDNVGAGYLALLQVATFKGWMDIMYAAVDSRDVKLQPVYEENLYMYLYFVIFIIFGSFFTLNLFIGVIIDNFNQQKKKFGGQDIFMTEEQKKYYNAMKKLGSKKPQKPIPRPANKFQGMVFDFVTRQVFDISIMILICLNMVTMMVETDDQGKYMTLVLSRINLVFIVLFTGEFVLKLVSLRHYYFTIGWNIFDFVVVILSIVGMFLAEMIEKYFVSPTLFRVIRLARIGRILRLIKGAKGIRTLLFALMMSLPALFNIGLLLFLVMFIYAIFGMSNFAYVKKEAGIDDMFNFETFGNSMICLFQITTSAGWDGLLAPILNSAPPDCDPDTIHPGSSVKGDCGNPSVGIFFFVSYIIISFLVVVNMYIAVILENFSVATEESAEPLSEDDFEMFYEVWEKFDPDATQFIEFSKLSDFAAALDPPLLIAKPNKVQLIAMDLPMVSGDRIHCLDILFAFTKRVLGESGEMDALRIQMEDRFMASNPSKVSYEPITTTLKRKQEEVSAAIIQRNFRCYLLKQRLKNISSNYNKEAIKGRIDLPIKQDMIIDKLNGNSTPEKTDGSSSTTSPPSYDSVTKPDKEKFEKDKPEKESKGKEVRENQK

hNav1.5 = hNav1.5 (Homo sapiens, UniProt Q14524); conditions: IonWorks Quattro, read-out: IWQ Use Nav1.5
Chain of hNav1.5 (Q14524 whole entry, looked up): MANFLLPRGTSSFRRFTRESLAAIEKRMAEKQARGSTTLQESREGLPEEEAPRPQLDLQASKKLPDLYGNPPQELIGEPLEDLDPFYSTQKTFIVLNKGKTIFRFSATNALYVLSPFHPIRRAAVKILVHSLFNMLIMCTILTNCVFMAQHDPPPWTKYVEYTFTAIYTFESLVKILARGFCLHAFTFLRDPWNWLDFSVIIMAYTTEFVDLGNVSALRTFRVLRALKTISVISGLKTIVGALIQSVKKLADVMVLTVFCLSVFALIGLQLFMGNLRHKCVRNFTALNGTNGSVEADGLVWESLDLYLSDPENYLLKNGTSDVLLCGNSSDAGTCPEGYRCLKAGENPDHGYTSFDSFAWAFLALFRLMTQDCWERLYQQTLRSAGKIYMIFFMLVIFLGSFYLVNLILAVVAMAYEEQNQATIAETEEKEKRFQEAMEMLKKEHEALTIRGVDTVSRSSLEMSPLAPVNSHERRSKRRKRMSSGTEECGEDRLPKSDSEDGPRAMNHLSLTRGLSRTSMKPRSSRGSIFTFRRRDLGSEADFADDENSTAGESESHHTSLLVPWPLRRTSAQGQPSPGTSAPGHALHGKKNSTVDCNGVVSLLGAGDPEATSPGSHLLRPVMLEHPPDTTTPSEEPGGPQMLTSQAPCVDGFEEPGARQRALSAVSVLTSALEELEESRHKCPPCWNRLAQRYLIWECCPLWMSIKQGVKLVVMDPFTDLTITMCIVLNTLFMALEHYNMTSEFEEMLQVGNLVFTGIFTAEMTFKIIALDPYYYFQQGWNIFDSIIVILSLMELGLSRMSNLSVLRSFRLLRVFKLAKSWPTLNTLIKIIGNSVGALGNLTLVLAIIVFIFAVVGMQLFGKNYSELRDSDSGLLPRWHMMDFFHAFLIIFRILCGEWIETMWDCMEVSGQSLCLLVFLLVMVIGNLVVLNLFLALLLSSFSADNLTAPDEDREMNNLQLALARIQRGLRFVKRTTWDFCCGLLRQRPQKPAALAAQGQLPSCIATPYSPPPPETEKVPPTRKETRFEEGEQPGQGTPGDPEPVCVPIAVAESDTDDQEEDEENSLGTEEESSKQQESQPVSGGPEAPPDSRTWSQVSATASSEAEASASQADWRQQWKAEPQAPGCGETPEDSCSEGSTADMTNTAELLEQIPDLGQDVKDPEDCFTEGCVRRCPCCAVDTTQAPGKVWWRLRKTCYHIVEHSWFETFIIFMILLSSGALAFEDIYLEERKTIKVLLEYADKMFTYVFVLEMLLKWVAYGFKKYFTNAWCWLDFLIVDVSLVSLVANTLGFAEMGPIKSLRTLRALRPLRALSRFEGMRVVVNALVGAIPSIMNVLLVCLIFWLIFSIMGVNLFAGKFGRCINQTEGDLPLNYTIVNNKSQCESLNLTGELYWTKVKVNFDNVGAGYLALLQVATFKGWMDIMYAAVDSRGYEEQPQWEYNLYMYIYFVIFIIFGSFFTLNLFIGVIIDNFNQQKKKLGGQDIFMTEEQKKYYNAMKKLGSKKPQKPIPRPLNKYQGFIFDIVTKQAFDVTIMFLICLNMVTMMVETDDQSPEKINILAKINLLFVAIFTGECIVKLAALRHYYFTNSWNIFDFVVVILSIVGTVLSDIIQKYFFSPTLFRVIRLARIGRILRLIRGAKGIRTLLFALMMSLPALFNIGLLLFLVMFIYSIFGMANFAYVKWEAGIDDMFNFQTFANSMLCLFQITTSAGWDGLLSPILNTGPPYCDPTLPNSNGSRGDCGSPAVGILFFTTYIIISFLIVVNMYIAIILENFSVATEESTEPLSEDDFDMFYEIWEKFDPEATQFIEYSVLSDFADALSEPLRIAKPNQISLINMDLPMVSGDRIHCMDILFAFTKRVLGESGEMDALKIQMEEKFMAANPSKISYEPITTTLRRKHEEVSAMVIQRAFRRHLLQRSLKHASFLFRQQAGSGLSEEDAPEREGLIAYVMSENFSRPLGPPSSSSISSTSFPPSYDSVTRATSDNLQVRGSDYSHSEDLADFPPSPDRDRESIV

hNav1.7 = hNav1.7 (Homo sapiens, UniProt Q15858); assay type: cell-based; conditions: IonWorks Quattro
[1] = use-dependent, […], read-out: IWQ Use Nav1.7
[2] = use-dependent block, hNav1.7, read-out: IWQ Use Nav1.7
[3] = use-dependent, […], read-out: IWQ Use Nav1.7 (μm)

SMILES	IC50 (hNav1.3; use-dependent, […])	IC50 (hNav1.5; use-dependent, […])	IC50 (hNav1.3; use-dependent block, hNav1.3)	IC50 (hNav1.5; use-dependent block, hNav1.5)	IC50 (hNav1.7; [2])	also measured
CC[C@H](C)[C@@H]1NC(=O)[C@@H]2CSSC[C@@H]3NC(=O)[C@H](C(C)C)NC(=O)[C@H](CC(C)C)NC(=O)[C@H](CC(N)=O)NC(=O)[C@@H]4CCCN4C(=O)[C@H](CCCNC(=N)N)NC(=O)[C@H](CSSC[C@H](NC(=O)[C@@H](N)CC(=O)O)C(=O)N[C@@H](CC(C)C)C(=O)NCC(=O)N[C@@H](Cc4ccccc4)C(=O)N[C@@H](CCSC)C(=O)N[C@@H](CCCNC(=N)N)C(=O)N[C@@H](CCCCN)C(=O)N2)NC(=O)[C@H](CSSC[C@@H](C(=O)N[C@@H](CCCCN)C(=O)N[C@@H](Cc2ccc(O)cc2)C(=O)N[C@H](C(=O)N[C@@H](CC(C)C)C(N)=O)C(C)C)NC(=O)[C@H](Cc2c[nH]c4ccccc24)NC(=O)[C@H](CCCCN)NC(=O)[C@H](Cc2c[nH]cn2)NC(=O)[C@H]([C@@H](C)O)NC(=O)[C@H](CCCNC(=N)N)NC(=O)[C@H](CO)NC3=O)NC(=O)[C@H](CCCCN)NC(=O)[C@H](CC(=O)O)NC(=O)[C@H](CC(N)=O)NC(=O)[C@H](CC(=O)O)NC(=O)[C@@H]2CCCN2C1=O [compound 122] (H-DCLGFMRKCIPDNDKCCRPNLVCSRTHKWCKYVL-NH2; disulfide 2-17, 9-23, 16-30)	130 nM	8460 nM	–	–	–	IC50 (hNav1.7; [1]): 240 nM
CC[C@H](C)[C@@H]1NC(=O)[C@@H]2CSSC[C@@H]3NC(=O)[C@H](C(C)C)NC(=O)[C@H](CC(C)C)NC(=O)[C@H](CC(N)=O)NC(=O)CNC(=O)[C@H](CCCNC(=N)N)NC(=O)[C@H](CSSC[C@H](NC(=O)[C@@H](N)CC(=O)O)C(=O)N[C@@H](CC(C)C)C(=O)NCC(=O)N[C@@H](Cc4ccccc4)C(=O)N[C@@H](CCSC)C(=O)N[C@@H](CCCNC(=N)N)C(=O)N[C@@H](CCCCN)C(=O)N2)NC(=O)[C@H](CSSC[C@@H](C(=O)N[C@@H](CCCCN)C(=O)N[C@@H](Cc2ccc(O)cc2)C(=O)N[C@H](C(=O)N[C@@H](Cc2ccccc2)C(N)=O)C(C)C)NC(=O)[C@H](Cc2c[nH]c4ccccc24)NC(=O)[C@H](CCCCN)NC(=O)[C@H](Cc2c[nH]cn2)NC(=O)[C@H]([C@@H](C)O)NC(=O)[C@H](CCCNC(=N)N)NC(=O)[C@H](CO)NC3=O)NC(=O)[C@H](CCCCN)NC(=O)[C@H](CC(=O)O)NC(=O)[C@H](CC(N)=O)NC(=O)[C@H](CC(=O)O)NC(=O)[C@@H]2CCCN2C1=O [compound 126] (H-DCLGFMRKCIPDNDKCCRGNLVCSRTHKWCKYVF-NH2; disulfide 2-17, 9-23, 16-30)	–	–	–	–	–	IC50 (hNav1.3; Use): 110 nM; IC50 (hNav1.5; Use): 11900 nM; IC50 (hNav1.7; Use, read-out: IWQ Use Nav1.7): 100 nM
CC[C@H](C)[C@@H]1NC(=O)[C@@H]2CSSC[C@@H]3NC(=O)[C@H](C(C)C)NC(=O)[C@H](CC(C)C)NC(=O)[C@H](CC(N)=O)NC(=O)[C@@H]4CCCN4C(=O)[C@H](CCCNC(=N)N)NC(=O)[C@H](CSSC[C@H](NC(=O)[C@@H](N)CC(=O)O)C(=O)N[C@@H](CC(C)C)C(=O)NCC(=O)N[C@@H](Cc4ccccc4)C(=O)N[C@@H](CCSC)C(=O)N[C@@H](CCCNC(=N)N)C(=O)N[C@@H](CCCCN)C(=O)N2)NC(=O)[C@H](CSSC[C@@H](C(=O)N[C@@H](CCCCN)C(=O)N[C@@H](CCCCN)C(=O)N[C@H](C(=O)N[C@@H](Cc2ccccc2)C(=O)N[C@@H](Cc2c[nH]c4ccccc24)C(N)=O)C(C)C)NC(=O)[C@H](Cc2c[nH]c4ccccc24)NC(=O)[C@H](CCCCN)NC(=O)[C@H](Cc2c[nH]cn2)NC(=O)[C@H]([C@@H](C)O)NC(=O)[C@H](CCCNC(=N)N)NC(=O)[C@H](CO)NC3=O)NC(=O)[C@H](CCCCN)NC(=O)[C@H](CC(=O)O)NC(=O)[C@H](CC(N)=O)NC(=O)[C@H](CC(=O)O)NC(=O)[C@@H]2CCCN2C1=O [compound 127] (H-DCLGFMRKCIPDNDKCCRPNLVCSRTHKWCKKVFW-NH2; disulfide 2-17, 9-23, 16-30)	–	–	700 nM	18900 nM	730 nM	–
CC[C@H](C)[C@@H]1NC(=O)[C@@H]2CSSC[C@@H]3NC(=O)[C@H](C(C)C)NC(=O)[C@H](CC(C)C)NC(=O)[C@H](CC(N)=O)NC(=O)[C@@H]4CCCN4C(=O)[C@H](CCCNC(=N)N)NC(=O)[C@H](CSSC[C@H](NC(=O)[C@@H](N)CC(=O)O)C(=O)N[C@@H](CC(C)C)C(=O)NCC(=O)N[C@@H](Cc4ccccc4)C(=O)N[C@@H](CCSC)C(=O)N[C@@H](CCCNC(=N)N)C(=O)N[C@@H](CCCCN)C(=O)N2)NC(=O)[C@H](CSSC[C@@H](C(=O)N[C@@H](CCCCN)C(=O)N[C@@H](Cc2ccc(O)cc2)C(=O)N[C@H](C(=O)N[C@@H](Cc2ccc4ccccc4c2)C(N)=O)C(C)C)NC(=O)[C@H](Cc2c[nH]c4ccccc24)NC(=O)[C@H](CCCCN)NC(=O)[C@H](Cc2c[nH]cn2)NC(=O)[C@H]([C@@H](C)O)NC(=O)[C@H](CCCNC(=N)N)NC(=O)[C@H](CO)NC3=O)NC(=O)[C@H](CCCCN)NC(=O)[C@H](CC(=O)O)NC(=O)[C@H](CC(N)=O)NC(=O)[C@H](CC(=O)O)NC(=O)[C@@H]2CCCN2C1=O [compound 130] (H-DCLGFMRKCIPDNDKCCRPNLVCSRTHKWCKYV[2Nal]-NH2; disulfide 2-17, 9-23, 16-30)	20 nM	3590 nM	–	–	–	IC50 (hNav1.7; [1]): 40 nM
CC[C@H](C)[C@@H]1NC(=O)[C@@H]2CSSC[C@@H]3NC(=O)[C@H](C(C)C)NC(=O)[C@H](CC(C)C)NC(=O)[C@H](CC(N)=O)NC(=O)[C@@H]4CCCN4C(=O)[C@H](CCCNC(=N)N)NC(=O)[C@H](CSSC[C@H](NC(=O)[C@@H](N)CC(=O)O)C(=O)N[C@@H](CC(C)C)C(=O)NCC(=O)N[C@@H](Cc4ccccc4)C(=O)N[C@@H](CCSC)C(=O)N[C@@H](CCCNC(=N)N)C(=O)N[C@@H](CCCCN)C(=O)N2)NC(=O)[C@H](CSSC[C@@H](C(=O)N[C@@H](CCCCN)C(=O)N[C@@H](Cc2ccc(O)cc2)C(=O)N[C@H](C(=O)N[C@@H](Cc2ccccc2)C(=O)N[C@@H](Cc2ccc4ccccc4c2)C(N)=O)C(C)C)NC(=O)[C@H](Cc2c[nH]c4ccccc24)NC(=O)[C@H](CCCCN)NC(=O)[C@H](Cc2c[nH]cn2)NC(=O)[C@H]([C@@H](C)O)NC(=O)[C@H](CCCNC(=N)N)NC(=O)[C@H](CO)NC3=O)NC(=O)[C@H](CCCCN)NC(=O)[C@H](CC(=O)O)NC(=O)[C@H](CC(N)=O)NC(=O)[C@H](CC(=O)O)NC(=O)[C@@H]2CCCN2C1=O [compound 131]	20 nM	2550 nM	–	–	–	IC50 (hNav1.7; [3]): 50 nM
CC[C@H](C)[C@@H]1NC(=O)[C@@H]2CSSC[C@@H]3NC(=O)[C@H](C(C)C)NC(=O)[C@H](CC(C)C)NC(=O)[C@H](CC(N)=O)NC(=O)[C@@H]4CCCN4C(=O)[C@H](CCCNC(=N)N)NC(=O)[C@H](CSSC[C@H](NC(=O)[C@@H](N)CC(=O)O)C(=O)N[C@@H](CC(C)C)C(=O)NCC(=O)N[C@@H](Cc4ccccc4)C(=O)N[C@@H](CCSC)C(=O)N[C@@H](CCCNC(=N)N)C(=O)N[C@@H](CCCCN)C(=O)N2)NC(=O)[C@H](CSSC[C@@H](C(=O)N[C@@H](CCCCN)C(=O)N[C@@H](Cc2ccc(O)cc2)C(=O)N[C@H](C(=O)N[C@@H](Cc2ccccc2)C(=O)N[C@@H](Cc2c[nH]c4ccccc24)C(=O)O)C(C)C)NC(=O)[C@H](Cc2c[nH]c4ccccc24)NC(=O)[C@H](CCCCN)NC(=O)[C@H](Cc2c[nH]cn2)NC(=O)[C@H]([C@@H](C)O)NC(=O)[C@H](CCCNC(=N)N)NC(=O)[C@H](CO)NC3=O)NC(=O)[C@H](CCCCN)NC(=O)[C@H](CC(=O)O)NC(=O)[C@H](CC(N)=O)NC(=O)[C@H](CC(=O)O)NC(=O)[C@@H]2CCCN2C1=O [compound 133]	110 nM	8280 nM	–	–	–	IC50 (hNav1.7; [3]): 480 nM
CC[C@@H]1NC(=O)[C@H](CCCCN)NC(=O)[C@H](CCCNC(=N)N)NC(=O)[C@H](CCSC)NC(=O)[C@H](Cc2ccccc2)NC(=O)CNC(=O)[C@H](CC(C)C)NC(=O)[C@@H](NC(=O)[C@@H](N)CC(=O)O)CSSC[C@@H]2NC(=O)[C@H](CSSC[C@@H](C(=O)N[C@@H](CCCCN)C(=O)N[C@@H](Cc3ccc(O)cc3)C(=O)N[C@H](C(=O)N[C@@H](Cc3ccccc3)C(N)=O)C(C)C)NC(=O)[C@H](Cc3c[nH]c4ccccc34)NC(=O)[C@H](CCCCN)NC(=O)[C@H](Cc3c[nH]cn3)NC(=O)[C@H]([C@@H](C)O)NC(=O)[C@H](CCCNC(=N)N)NC(=O)[C@H](CO)NC(=O)[C@H](CC)NC(=O)[C@H](C(C)C)NC(=O)[C@H](CC(C)C)NC(=O)[C@H](CC(N)=O)NC(=O)[C@@H]3CCCN3C(=O)[C@H](CCCNC(=N)N)NC2=O)NC(=O)[C@H](CCCCN)NC(=O)[C@H](CC(=O)O)NC(=O)[C@H](CC(N)=O)NC(=O)[C@H](CC(=O)O)NC(=O)[C@@H]2CCCN2C(=O)[C@H]([C@@H](C)CC)NC1=O [compound 135] (H-DCLGFMRK[Abu]IPDNDKCCRPNLV[Abu]SRTHKWCKYVF-NH2; disulfide 2-17, 16-30)	–	–	12300 nM	9210 nM	8140 nM	–
CC[C@H](C)[C@@H]1NC(=O)[C@@H]2CSSC[C@@H]3NC(=O)[C@H](C(C)C)NC(=O)[C@H](CC(C)C)NC(=O)[C@H](CC(N)=O)NC(=O)[C@@H]4CCCN4C(=O)[C@H](CCCNC(=N)N)NC(=O)[C@H](CSSC[C@H](NC(=O)[C@@H](N)CC(=O)O)C(=O)N[C@@H](CC(C)C)C(=O)NCC(=O)N[C@@H](Cc4ccc5ccccc5c4)C(=O)N[C@@H](CCSC)C(=O)N[C@@H](CCCNC(=N)N)C(=O)N[C@@H](CCCCN)C(=O)N2)NC(=O)[C@H](CSSC[C@@H](C(=O)N[C@@H](CCCCN)C(=O)N[C@@H](Cc2ccc(O)cc2)C(=O)N[C@H](C(=O)N[C@@H](Cc2ccc4ccccc4c2)C(N)=O)C(C)C)NC(=O)[C@H](Cc2c[nH]c4ccccc24)NC(=O)[C@H](CCCCN)NC(=O)[C@H](Cc2c[nH]cn2)NC(=O)[C@H]([C@@H](C)O)NC(=O)[C@H](CCCNC(=N)N)NC(=O)[C@H](CO)NC3=O)NC(=O)[C@H](CCCCN)NC(=O)[C@H](CC(=O)O)NC(=O)[C@H](CC(N)=O)NC(=O)[C@H](CC(=O)O)NC(=O)[C@@H]2CCCN2C1=O [compound 136] (H-DCLG[2Nal]MRKCIPDNDKCCRPNLVCSRTHKWCKYV[2Nal]-NH2; disulfide 2-17, 9-23, 16-30)	–	–	30 nM	5140 nM	140 nM	–
